{"source": "patent US11446287B2", "about": "“Compounds and methods for EP300 or CBP modulation and indications therefor” (Opna Immuno-Oncology SA, priority 2019, dated 2022)"}
{"target": "T1, Recombinant human BRD4 containing dual bromodomains (BRD4-BD12 (1-477)) (Homo sapiens, UniProt O60885)", "T1 construct": "Recombinant human BRD4 containing dual bromodomains (BRD4-BD12 (1-477)); made in house; host or cells: E. coli BL21-CodonPlus (DE3), modified pET vector", "assay": "BRD4 Alphascreen binding assay", "procedure,_shortened": "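AlphaScreen proximity between Ni-chelate-bound BRD4-BD12 (1-477) and streptavidin-captured H4 K5/K8/K12/K16-acetyl peptide measured after 1 h room-temperature compound incubation and 30 min with 7.5 μg/ml beads. Buffer: 50 mM HEPES pH 7.5, 50 mM NaCl, 0.01% BSA, 0.01% Triton X-100; data plate-normalized and four-parameter fit for IC50.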", "units": {"IC50": "µM"}}
{"molecule": "Cc1noc(C)c1-c1cnc2c(C(=O)C3CC3)c(O)n(-c3ccnc(C(=O)O)c3)c2c1", "note": "[P-0084, 4-(3-(cyclopropanecarbonyl)-6-(3,5-dimethylisoxazol-4-yl)-2-hydroxy-1H-pyrrolo[3,2-b]pyridin-1-yl)picolinic acid]", "IC50": "0.0001 to 1"}
{"molecule": "Cc1noc(C)c1-c1cnc2c(c1)c(-c1cccc(C(=O)O)c1)cn2C(=O)c1ccccc1", "note": "[P-0085, 3-(1-benzoyl-5-(3,5-dimethylisoxazol-4-yl)-1H-pyrrolo[2,3-b]pyridin-3-yl)benzoic acid]", "IC50": "8 to 1000"}
{"molecule": "Cc1noc(C)c1-c1cnc2c(CC3CCC3)cn(-c3c(C(=O)O)ccc(Br)c3F)c2c1", "note": "[P-0086, 4-bromo-2-(3-(cyclobutylmethyl)-6-(3,5-dimethylisoxazol-4-yl)-1H-pyrrolo[3,2-b]pyridin-1-yl)-3-fluorobenzoic acid]", "IC50": "1 to 8"}
{"molecule": "COc1c(-n2cc(CC3CCC3)c3ncc(-c4c(C)noc4C)cc32)ccc(C(=O)O)c1F", "note": "[P-0087, 4-(3-(cyclobutylmethyl)-6-(3,5-dimethylisoxazol-4-yl)-1H-pyrrolo[3,2-b]pyridin-1-yl)-2-fluoro-3-methoxybenzoic acid]", "IC50": "1 to 8"}
{"molecule": "Cc1noc(C)c1-c1cnc2c(C(=O)c3cccc(Cl)c3)cn(-c3ccnc(C(=O)O)c3)c2c1", "note": "[P-0088, 4-(3-(3-chlorobenzoyl)-6-(3,5-dimethylisoxazol-4-yl)-1H-pyrrolo[3,2-b]pyridin-1-yl)picolinic acid]", "IC50": "1 to 8"}
{"molecule": "Cc1noc(C)c1-c1cnc2c(C(=O)c3ccccc3Cl)cn(-c3ccnc(C(=O)O)c3)c2c1", "note": "[P-0089, 4-(3-(2-chlorobenzoyl)-6-(3,5-dimethylisoxazol-4-yl)-1H-pyrrolo[3,2-b]pyridin-1-yl)picolinic acid]", "IC50": "1 to 8"}
{"molecule": "Cc1noc(C)c1-c1cnc2c(Cc3cccc(Cl)c3)cn(-c3ccnc(C(=O)O)c3)c2c1", "note": "[P-0090, 4-(3-(3-chlorobenzyl)-6-(3,5-dimethylisoxazol-4-yl)-1H-pyrrolo[3,2-b]pyridin-1-yl)picolinic acid]", "IC50": "0.0001 to 1"}
{"molecule": "Cc1noc(C)c1-c1cnc2c(Cc3ccccc3Cl)cn(-c3ccnc(C(=O)O)c3)c2c1", "note": "[P-0091, 4-(3-(2-chlorobenzyl)-6-(3,5-dimethylisoxazol-4-yl)-1H-pyrrolo[3,2-b]pyridin-1-yl)picolinic acid]", "IC50": "1 to 8"}
{"molecule": "Cc1noc(C)c1-c1cnc2c(c1)c(-c1cccc(C(=O)NS(C)(=O)=O)c1)cn2Cc1ccccc1", "note": "[P-0092, 3-(1-benzyl-5-(3,5-dimethylisoxazol-4-yl)-1H-pyrrolo[2,3-b]pyridin-3-yl)-N-(methylsulfonyl)benzamide]", "IC50": "1 to 8"}
{"molecule": "Cc1noc(C)c1-c1cnc2c(c1)c(C1=CCC(C(=O)O)CC1)cn2Cc1ccccc1", "note": "(stereo not shown) [P-0093, 4-(1-benzyl-5-(3,5-dimethylisoxazol-4-yl)-1H-pyrrolo[2,3-b]pyridin-3-yl)cyclohex-3-ene-1-carboxylic acid]", "IC50": "1 to 8"}
{"molecule": "Cc1noc(C)c1-c1cnc2c(c1)c(-c1c(F)cc(C(=O)O)cc1F)cn2C(C)c1ccccn1", "note": "(stereo not shown) [P-0094, 4-(5-(3,5-dimethylisoxazol-4-yl)-1-(1-(pyridin-2-yl)ethyl)-1H-pyrrolo[2,3-b]pyridin-3-yl)-3,5-difluorobenzoic acid]", "IC50": "8 to 1000"}
{"molecule": "Cc1noc(C)c1-c1cnc2c(c1)c(-c1c(Cl)cc(C(=O)O)cc1Cl)cn2C(C)c1ccccn1", "note": "(stereo not shown) [P-0095, 3,5-dichloro-4-(5-(3,5-dimethylisoxazol-4-yl)-1-(1-(pyridin-2-yl)ethyl)-1H-pyrrolo[2,3-b]pyridin-3-yl)benzoic acid]", "IC50": "1 to 8"}
{"molecule": "Cc1noc(C)c1-c1cnc2c(c1)c(-c1c(F)ccc(NS(C)(=O)=O)c1F)cn2C(C)c1ccccn1", "note": "(stereo not shown) [P-0096, N-(3-(5-(3,5-dimethylisoxazol-4-yl)-1-(1-(pyridin-2-yl)ethyl)-1H-pyrrolo[2,3-b]pyridin-3-yl)-2,4-difluorophenyl)methanesulfonamide]", "IC50": "1 to 8"}
